System: primary GBM cells taken from eight patients with recurrent GBM
Assay: GBM cell cytotoxicity of IRN, TMZ and IRN+PVT, increasing concentrations, 5 days (MTT)
Format: cell-based, human
Procedure: TMZ, IRN and IRN+PVT were added at increasing concentrations up to 5 log nm to cultured primary GBM cells taken from eight patients with recurrent GBM. After 5 days of exposure an MTT assay was performed to assess % cell viability.

In the case of `CCc1c2c(nc3ccc(OC(=O)N4CCC(N5CCCCC5)CC4)cc13)-c1cc3c(c(=O)n1C2)COC(=O)[C@]3(O)CC` [IRN, irinotecan], the IC50 (Homo sapiens, 120 h, determined from FIG. 23, 5 days exposure, eight patient lines) is reported as 3.16 µM and the “response of the eight patient cell lines to treatment” value (up to 5 log nm, 5 days of exposure) is reported as “Six of the eight patient cell lines responded”.

— patent US20230030886A1, “CHEMOTHERAPEUTIC DRUG IMPLANT” (EXTRUDED PHARMACEUTICALS LTD, priority 2019, published 2023)
